# Laboratory results taken from patent publication US20210189342A1, “COMPOSITIONS AND METHODS FOR MODULATING MONOCYTE AND MACROPHAGE INFLAMMATORY PHENOTYPES AND IMMUNOTHERAPY USES THEREOF” (Verseau Therapeutics, Inc., priority 2018, published 2021).
# B1: Ab 18: recombinant human IgG4 (S228P) chimera, lambda light chain; variable regions in Table 6 (antibody, V domains shown)
# VH: EVQLLESGGGLVRPGGSLRLSCAASGFTFSSYAMSWVRQAPGKGLEWVSAISGSGGSTYYADSVKGRFTISRDNSKNTLYLQMNSLRAEDTAVYYCARDKRLTYWGQGTMVTVSS
# VL: QSVVTQPPSVSAAPGQKVTISCSGSSSNIGNNYVSWYQQLPGTAPKLLIYDNNKRPSGIPDRFSGSKSGTSATLGITGLQTGDEADYYCGTWDSSLSARVFGGGTKVTVL
# modifications: human IgG4 S228P constant regions
# B2: Ab 8: recombinant human IgG4 (S228P) chimera, kappa light chain; variable regions in Table 6 (antibody, V domains shown)
# VH: QVQLQQSGPGLVKPSQTLSLTCAISGDSVSSNIAAWHWIRLSPSRGLEWLGRTYYRRSKWNYDYALSVKSRININPDTSKNLFSLQLNSVTPEDTAVYYCTRGGGRAHSAWGQGTLVTVSS
# VL: EIVLTQSPGTLSVSPGERATLSCRASQSVSRSHLAWYQQKPGQAPRLLIFGASSRATGIPDRFSGSGSGTDFTLTISRLEPEDFAVYYCQQYGRPGVTFGQGTKVEIK
# modifications: human IgG4 S228P constant regions
# How the values were obtained:
# tumor tissue slices = assay: tumor tissue slice cultures; type: cell-based, human; settings: 10 ug/mL
# Text: A second system was used to further confirm the results of the dissociated tumor assays. Briefly, dissociated tumor assays have the advantage of being able to normalize the number of cells in every condition performed. They also have the potential downside of losing the tumor structure and non-cellular stromal components. […] Upon acquisition of fresh tumor tissue sample (less than 24 hrs), surrounding fat, fibrous, and necrotic areas were removed from the tumor sample as much as possible using scissors and scalpels. The tissue was embedded in the center of a tissue mold using 4% agarose. After solidifying, the agarose block was dislodged, and the mold was glued to a Leica VT1000 S microtome tissue holder and sectioned into 300 to 400 micron sections using the Leica VT1000 S microtome. […] At the end of the study, efficacy was evaluated by analyzing cytokine/chemokine amounts secreted into the culture supernatant measured using the Invitrogen™ Luminex™ Cytokine Human Magnetic 25-Plex Panel according to the manufacturer's instructions. […]
# dissociated tumors = assay: dissociated tumor assay; type: cell-based, human; settings: 10 ug/mL, 24 or 48 hrs, FIG. 8
# Text: One system used for this purpose was a dissociated tumor assay. Dissociated tumors contain all the various cell populations present in the tumor microenvironment, including, for example, tumor cells, immune cells, and support cells. These viable single cell suspensions are useful for many applications and allow for the normalization of cell number and composition within each replicate of an experiment. For performing dissociated tumor experiments upon acquisition of fresh tumor tissue (less than 24 hrs), surrounding fat, fibrous areas, and necrotic areas were removed from a tumor sample using scissors and scalpels. The tumor was cut into small pieces of 2-4 mm^3. The Tumor Dissociation Kit enzyme mix (MACS Miltenyi Biotec) was prepared according to the manufacturer's protocol. Tumor pieces and dissociation enzymes were transferred into 5 ml Snaplock Microcentrifuge tubes and the tissue was minced using a pair of straight scissors. Tubes were placed in a 37° C. shaker at 200-250 rpm for 45 minutes to 1 hour. At the end of the incubation time, the digested tumor was filtered through […] cell strainers into 50 mL Falcon™ conical centrifuge tubes. […] At the end of the study, cytokines/chemokines in the culture supernatant were measured using the Invitrogen™ Luminex™ Cytokine Human Magnetic 25-Plex Panel according to the manufacturer's instructions. […]
# [1] = system: peripheral blood mononuclear cells (PBMCs); type: cell-based, human; settings: SEB assay, 5 μg/ml, FIG. 5
# M2 macrophages [2] = assay: macrophage differentiation assay with antibodies, M1 and M2 markers; type: cell-based; settings: primary human macrophages under M2 skewing; antibody on day 1, 3 and 7; FIG. 4
# Text: Monocytes were differentiated in vitro to M1-like (Type 1) and/or M2-like (Type 2) phenotypes (Ries et a. (2014) Cancer Cell 25:846-859; Vogel et al. (2014) Immunobiol. 219:695-703). In order to differentiate monocytes into M1 versus M2 phenotypes monocytes were isolated from whole blood of healthy donors by Ficoll separation with RosetteSep™ Human Monocyte Enrichment Cocktail (Stemcell Technologies, Vancouver, Canada) according to the manufacturer's instructions. Isolated monocytes were arrayed in 24-well plates overnight in IMDM Media containing 10% fetal bovine serum and non-adherent cells were washed off after 24 hours. […] Expression of M1 and M2 macrophage markers and surface expressed targets was assessed by flow cytometry. […]
# Labeled cells were washed twice with FACS buffer and fixed with PBS+2% paraformaldehyde for flow cytometry analysis on an Attune™ flow cytometer (ThermoFisher). Data were analyzed via FlowJo software. Morphology was assessed via microscopy.
# Briefly, monocytes were isolated from whole blood of fresh donors by Ficoll separation with RosetteSep™ Human Monocyte Enrichment Cocktail (Stemcell Techhnologies, Vancouver Canada) according to the manufacturer's instructions. […] Cells were assessed for expression of M1 and M2 markers as described above and cell free supernatants were collected for analysis. […]
# M2 macrophages [3] = assay: M2 macrophage polarization, antibodies added only during the last two days, cytokines; type: cell-based, human; settings: 10 ug/mL (77, 78, 81-84 at 1 ug/mL), FIGS. 4D-4G
# Protocol: Briefly, monocytes were isolated from whole blood of fresh donors by Ficoll separation with RosetteSep™ Human Monocyte Enrichment Cocktail (Stemcell Techhnologies, Vancouver Canada) according to the manufacturer's instructions. Isolated monocytes were arrayed in 24-well plates overnight in Iscove's Modified Dubelcos Media ([…]) (ThermoFisher) media containing 10% fetal bovine serum and non-adherent cells were washed off after 24 hours. Monocytes were differentiated into macrophages by culturing for 6 days in IMDM 10% FBS plus 50 ng/ml human M-CSF for M2 macrophages, or 50 ng/ml GM-CSF (Biolegend, San Diego, Calif.) for M1 macrophages. M1 macrophages were activated on day 6 with IFN-gamma and LPS, whereas M2 macrophages were polarized on day 6 with 20 ng/ml IL-10 and activated on day 7 with 100 ng/ml LPS. […] Cells were assessed for expression of M1 and M2 markers as described above and cell free supernatants were collected for analysis. Data are representative of at least 3-4 healthy donors.
# Beyond phenotypic surface markers, M1 (such as Type 1) and M2 (such as Type 2) macrophages produce different cytokines and chemokines. For example, M1 macrophages produce more pro-inflammatory cytokines, including but not limited to, GM-CSF, IL-12, and TNF alpha, whereas M2 macrophages produce more pro-tumorigenic and immunosuppressive cytokines, such as VEGF, IL-10, and TGFb. […]
Molecule,"cytokine response (tumor tissue slices; GI tumor, FIG. 9B)","cytokine response (IFNg, TNFα) (tumor tissue slices; lung tumor, FIG. 9A)",IFNg production (dissociated tumors),IL-10 production (dissociated tumors),T cell activity (IFNg production) ([1]; donor 2),T cell-specific response as indicated by IFNg production ([1]; donor 5),"effect on macrophage phenotypic marker sets (classical and novel biomarkers), reversal of skewing towards M2 (M2 macrophages [2])","polarization of M2 macrophages to a more M1-like state, increase in pro-inflammatory cytokines (M2 macrophages [3])"
pembrolizumab,do not provide a response,showed a response,stimulating IFNg production,induces immunosuppressive IL-10,no increase in T cell activity,increase in T cell-specific response,–,–
B1,–,–,–,–,–,–,dose-titratable effect,dramatically effect polarization of M2 macrophages to a more M1-like state
B2,–,–,–,–,–,–,dose-titratable effect,dramatically effect polarization of M2 macrophages to a more M1-like state
